{"source": "patent US9714951B2", "about": "“Pharmaceutical compositions containing peptides derived from human BPLP protein” (INSTITUT PASTEUR, priority 2004, dated 2017)", "key": {"[1]": {"target": "T1, human NEP (human ecto-endopeptidase activity, LNCaP cell line) (Homo sapiens, UniProt P08473)", "T1 construct": "in the experimental model of static incubation of human LNCaP cell membranes; endogenous in cells; host or cells: LNCaP (human prostate adenocarcinoma) membrane preparation, NEP induced by DHT", "T1 sequence (P08473 whole entry)": "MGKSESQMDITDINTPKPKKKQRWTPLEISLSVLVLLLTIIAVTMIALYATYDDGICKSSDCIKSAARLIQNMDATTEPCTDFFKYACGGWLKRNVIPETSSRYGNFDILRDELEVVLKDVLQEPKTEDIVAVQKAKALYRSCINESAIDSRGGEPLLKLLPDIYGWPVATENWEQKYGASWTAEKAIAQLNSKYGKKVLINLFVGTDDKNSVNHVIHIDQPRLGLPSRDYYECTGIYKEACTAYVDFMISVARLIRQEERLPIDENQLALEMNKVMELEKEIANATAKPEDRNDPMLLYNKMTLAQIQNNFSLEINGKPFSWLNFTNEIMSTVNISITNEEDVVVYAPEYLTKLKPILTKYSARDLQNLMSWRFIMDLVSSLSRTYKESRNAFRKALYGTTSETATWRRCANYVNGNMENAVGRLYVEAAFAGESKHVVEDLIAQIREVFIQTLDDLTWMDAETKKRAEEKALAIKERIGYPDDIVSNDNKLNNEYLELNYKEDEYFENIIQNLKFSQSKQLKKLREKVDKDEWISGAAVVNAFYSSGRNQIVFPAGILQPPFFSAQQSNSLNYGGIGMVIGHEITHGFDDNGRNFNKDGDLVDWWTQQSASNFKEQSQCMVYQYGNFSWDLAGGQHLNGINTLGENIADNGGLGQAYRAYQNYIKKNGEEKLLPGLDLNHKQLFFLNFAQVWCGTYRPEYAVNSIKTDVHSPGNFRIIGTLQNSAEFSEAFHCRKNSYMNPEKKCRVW", "experiment": "breakdown of substrate (substance P, McaBK2) by LNCaP human cell membranes", "format": "biochemical", "details": "for effect on substance P hydrolysis by cell surface ectopeptidases: bestatin 25 μM, captopril 10 μM"}, "[2]": {"target": "T2, rat NEP ecto-endopeptidase activity (renal tissue) (Rattus norvegicus, UniProt P07861)", "T2 construct": "rat NEP ecto-endopeptidase activity (renal tissue); from tissue; host or cells: rat kidney (renal tissue)", "T2 sequence (P07861 1-750)": "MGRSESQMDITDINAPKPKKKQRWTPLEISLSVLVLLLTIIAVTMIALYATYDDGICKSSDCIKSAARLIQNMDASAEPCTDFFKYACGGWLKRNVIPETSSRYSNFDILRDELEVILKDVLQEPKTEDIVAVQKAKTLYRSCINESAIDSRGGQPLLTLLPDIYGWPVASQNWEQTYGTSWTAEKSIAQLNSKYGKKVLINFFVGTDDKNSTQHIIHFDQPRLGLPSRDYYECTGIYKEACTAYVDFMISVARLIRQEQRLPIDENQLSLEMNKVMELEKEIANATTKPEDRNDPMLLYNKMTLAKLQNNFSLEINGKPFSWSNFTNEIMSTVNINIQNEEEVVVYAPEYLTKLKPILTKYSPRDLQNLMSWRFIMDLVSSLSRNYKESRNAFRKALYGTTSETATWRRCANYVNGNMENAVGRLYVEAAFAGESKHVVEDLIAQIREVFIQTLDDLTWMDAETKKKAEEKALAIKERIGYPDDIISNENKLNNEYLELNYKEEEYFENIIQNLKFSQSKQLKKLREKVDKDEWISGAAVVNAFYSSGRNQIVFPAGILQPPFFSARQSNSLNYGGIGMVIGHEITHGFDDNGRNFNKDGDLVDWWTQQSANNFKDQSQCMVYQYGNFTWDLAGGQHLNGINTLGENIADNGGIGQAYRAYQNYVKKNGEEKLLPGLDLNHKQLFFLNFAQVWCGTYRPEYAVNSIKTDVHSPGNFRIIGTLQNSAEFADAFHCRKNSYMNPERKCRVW", "experiment": "breakdown of substance P by rat renal NEP ecto-endopeptidase activity", "format": "biochemical", "protocol": "Briefly, for membrane preparations, the cells were homogenised at 4° C. in 10 volumes (vol./wt.) of 50 mM Tris/HCl buffered at pH 7.1. A first centrifugation at 1000×g and 5° C. for 5 min allows to remove the cellular debris and the nuclei in the pellet. A second centrifugation at 100 000×g and 5° C. for 30 min concentrates the membrane fraction in the pellet, which will be superficially washed three times in cold Tris/HCl buffer, resuspended in fresh buffer, aliquoted and stored at −80° C. while waiting to be used as enzyme source.\nHydrolysis of substrates was measured by monitoring the metabolism rate in conditions of initial velocity measurement in the presence and absence of specific inhibitors. These were added to the preincubation medium. The standard reaction mixture consisted of cell membranes in a final volume of 200 μl Tris-HCl 50 mM pH 6.5-7.2. The substrate was added after preincubation for 10 min and the digestion carried out for 20 min at 25° C. in a constantly shaken water bath. The reaction was terminated by cooling to 4° C. and adding HCl (0.3N final concentration). The reaction tubes were then centrifuged (4700×g for 15 min at 4° C.) and the remaining intact substrate and its metabolites measured.\nThe intact tritiated substrate was eluted with 75-100% methanol-0.1% TFA (4 ml). • RP-HPLC coupled to a spectrophotometer was used to analyse the hydrolysis of Met-enkephalin, (C-18 LUNA column, AIT). […] Their identities and relative quantities (peak height) were checked by monitoring the column outflow at 264 nm (L3000, Merck). • The disappearance of the initial Met-enkephalin substrate was also quantified by radioimmunoassay (RIA). […] The radioactivity of each fraction was determined by liquid scintillation spectrometry."}, "formalin-induced pain [3]": {"test_system": "formalin-induced pain", "experiment": "formalin test, behavioral rat model of acute pain", "format": "in vivo", "details": "for time spent in paw licking, early phase: first 20 min after formalin, vehicle 144±17 s", "from_the_text": "[…]. […] […]."}, "[4]": {"test_system": "human cell surface endopeptidases", "experiment": "metabolism of YQRFSR by human cell membranes containing NEP (RP-HPLC)", "format": "in vitro ADME", "details": "175 μM", "from_the_text": "FIG. 8 is a RP-HPLC chromatographic analysis of the YQRFSR peptide (SEQ ID NO: 4).\nThe inventors used the tritiated 3H-YQRFSR peptide (SEQ ID NO: 4) to establish the pharmacokinetic and pharmacodynamic parameters, of this human functional peptidomimetic of rat sialorphin in vivo in adult male rat (biodistribution-bioavailability-clearance) as well as to define its metabolism mechanism and turnover in vivo and in vitro, (FIG. 8)."}, "formalin-induced pain [5]": {"test_system": "formalin-induced pain", "details": "iv; cited from earlier work"}, "[6]": {"target": "T3, soluble purified renal NEP (Oryctolagus cuniculus, UniProt P08049)", "T3 construct": "host or cells: kidney (purified, soluble)", "T3 sequence (P08049 1-750)": "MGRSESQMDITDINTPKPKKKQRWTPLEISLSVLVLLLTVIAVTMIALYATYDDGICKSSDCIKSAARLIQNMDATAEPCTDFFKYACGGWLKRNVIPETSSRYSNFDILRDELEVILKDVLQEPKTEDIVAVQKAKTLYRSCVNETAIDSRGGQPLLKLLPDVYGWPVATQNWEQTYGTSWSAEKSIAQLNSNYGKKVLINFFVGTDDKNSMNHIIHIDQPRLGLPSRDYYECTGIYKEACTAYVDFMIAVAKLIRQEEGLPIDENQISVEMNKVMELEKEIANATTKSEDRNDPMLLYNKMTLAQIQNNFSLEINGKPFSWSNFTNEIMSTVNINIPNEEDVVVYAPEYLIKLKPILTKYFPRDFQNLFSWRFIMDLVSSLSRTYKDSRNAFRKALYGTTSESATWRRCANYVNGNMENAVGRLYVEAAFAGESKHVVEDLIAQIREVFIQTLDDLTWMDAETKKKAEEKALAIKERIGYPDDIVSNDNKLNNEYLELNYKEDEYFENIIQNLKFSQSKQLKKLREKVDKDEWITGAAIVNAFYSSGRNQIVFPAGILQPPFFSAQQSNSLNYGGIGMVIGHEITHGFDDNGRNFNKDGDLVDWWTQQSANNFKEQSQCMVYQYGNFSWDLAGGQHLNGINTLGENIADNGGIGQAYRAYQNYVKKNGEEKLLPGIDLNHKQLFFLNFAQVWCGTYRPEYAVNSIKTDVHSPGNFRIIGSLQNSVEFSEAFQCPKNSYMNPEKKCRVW", "details": "DGNPA substrate, read-out: IC50 of inhibition of NEP activity; cited from earlier work"}, "spinal and renal NEP": {"target": "T4, spinal and renal NEP (Rattus norvegicus, UniProt P07861)", "T4 construct": "host or cells: spinal cord and kidney tissue", "T4 sequence (P07861 1-750)": "T2 sequence (P07861 1-750)", "details": "membrane-bound NEP; read-out: IC50 of inhibition of the breakdown of substance P; cited from earlier work"}, "[7]": {"target": "T5, soluble recombinant human DPP IV (Homo sapiens, UniProt P27487)", "T5 construct": "(without the N-terminal cytosol and transmembrane segment)", "T5 sequence (P27487 29-766 limits assumed)": "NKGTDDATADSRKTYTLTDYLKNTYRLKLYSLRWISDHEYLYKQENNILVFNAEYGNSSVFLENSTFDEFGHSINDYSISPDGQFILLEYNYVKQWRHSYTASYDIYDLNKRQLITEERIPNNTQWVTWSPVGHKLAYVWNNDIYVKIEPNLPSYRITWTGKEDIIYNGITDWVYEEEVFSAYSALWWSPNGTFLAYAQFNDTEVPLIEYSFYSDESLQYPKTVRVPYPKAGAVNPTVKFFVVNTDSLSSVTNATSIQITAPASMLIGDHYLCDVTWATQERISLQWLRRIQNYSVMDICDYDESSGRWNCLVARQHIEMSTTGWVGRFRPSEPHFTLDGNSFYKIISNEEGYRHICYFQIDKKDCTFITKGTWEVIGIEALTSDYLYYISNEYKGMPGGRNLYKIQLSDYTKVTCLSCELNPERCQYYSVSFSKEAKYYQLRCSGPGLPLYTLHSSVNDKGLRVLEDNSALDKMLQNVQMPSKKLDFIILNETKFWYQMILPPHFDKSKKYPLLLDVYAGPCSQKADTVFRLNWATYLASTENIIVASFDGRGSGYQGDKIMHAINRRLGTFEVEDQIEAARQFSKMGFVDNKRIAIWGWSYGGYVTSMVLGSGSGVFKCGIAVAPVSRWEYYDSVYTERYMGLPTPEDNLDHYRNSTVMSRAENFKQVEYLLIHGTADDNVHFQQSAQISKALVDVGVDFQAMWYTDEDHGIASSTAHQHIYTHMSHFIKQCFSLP", "experiment": "endoproteolysis of substance P by soluble recombinant hDPPIV", "format": "biochemical", "details": "25 or 50 μM peptide"}}, "note": "“Also recorded” adds a separate entry of the source. Ends that are not written are not given here."}
{"compound": "CC(C)C[C@H](NC(=O)[C@@H](O)[C@H](N)Cc1ccccc1)C(=O)O", "note": "[bestatin]", "values": [{"measurement": "effect on substance P hydrolysis by cell surface ectopeptidases", "setting": "[1]", "result": "did not inhibit"}]}
{"compound": "N=C(N)NCCC[C@H](NC(=O)[C@H](CO)NC(=O)[C@H](Cc1ccccc1)NC(=O)[C@H](CCCNC(=N)N)NC(=O)[C@H](CCC(N)=O)NC(=O)[C@@H](N)Cc1ccc(O)cc1)C(=O)O", "note": "[YQRFSR]", "values": [{"measurement": "inhibitory potency towards ectoendopeptidase from human cells", "setting": "[1]", "result": "5 to 50", "unit": "µM"}, {"measurement": "inhibition of substance P endoproteolysis by human cell membranes", "setting": "[1]; peptide 175 μM", "result": 70, "unit": "%"}, {"measurement": "IC50", "setting": "[2]", "result": 38, "unit": "µM"}, {"measurement": "inhibitory potency towards ectoendopeptidase from rat tissues", "setting": "[2]", "result": "5 to 75", "unit": "µM"}, {"measurement": "time spent in paw licking, early phase", "setting": "formalin-induced pain [3]; 0.5 mg/kg systemic", "result": "97 ± 14", "unit": "s"}, {"measurement": "time spent in paw licking, early phase", "setting": "formalin-induced pain [3]; 1 mg/kg systemic", "result": "84 ± 13", "unit": "s"}, {"measurement": "time spent in paw licking, late phase", "setting": "formalin-induced pain [3]; 1 mg/kg, 40 to 60 min after formalin, vehicle 63±13 s", "result": "9 ± 3", "unit": "s"}, {"measurement": "analgesia in the presence of an opioid receptor antagonist", "setting": "formalin-induced pain [3]; with nalaxone", "result": "totally reversed"}, {"measurement": "metabolism by human cell membranes containing NEP", "setting": "[4]; in vitro", "result": "not metabolized"}, {"measurement": "recovered as intact peptide", "setting": "[4]; with human cell membranes containing NEP, 94% in absence of membranes", "result": 93, "unit": "%"}]}
{"compound": "QRGPR (listed as Homo sapiens)", "values": [{"measurement": "effect on substance P endoproteolysis induced by LNCaP human cell membranes", "setting": "[1]; 20-90 μM", "result": "no effect"}, {"measurement": "inhibitory potency towards ectoendopeptidase from human cells", "setting": "[1]", "result": "≧90 μM"}]}
{"compound": "QRGPRGP (listed as Homo sapiens)", "values": [{"measurement": "inhibitory potency towards ectoendopeptidase from human cells", "setting": "[1]", "result": "≧90 μM"}]}
{"compound": "CSCC[C@H](N)CSSCC(Cc1ccccc1)C(=O)N[C@@H](Cc1ccccc1)C(=O)OCc1ccccc1", "note": "(stereo partly shown) [RB101]", "values": [{"measurement": "effective doses in formalin-induced pain model", "setting": "formalin-induced pain [5]", "result": "2.5 to 5", "unit": "mg/kg"}]}
{"compound": "QHNPR", "values": [{"measurement": "inhibitory potency against membrane-anchored human NEP (LNCaP) relative to rodent NEP (rat, rabbit), fold lower", "setting": "[1]; human LNCaP vs rodent NEP", "result": "about 10 fold"}, {"measurement": "inhibitory potency towards ectoendopeptidase from human cells", "setting": "[1]", "result": "4 to 40", "unit": "µM"}, {"measurement": "inhibitory potency towards ectoendopeptidase from rat tissues", "setting": "[2]", "result": "0.4 to 4", "unit": "µM"}, {"measurement": "effective doses in formalin-induced pain model", "setting": "formalin-induced pain [5]", "result": "0.1 to 0.2", "unit": "mg/kg"}, {"measurement": "IC50", "setting": "[6]", "result": 600, "unit": "nM"}, {"measurement": "IC50", "setting": "spinal and renal NEP", "result": "400 to 1000", "unit": "nM"}]}
{"compound": "O=C(O)CNC(=O)C(CS)Cc1ccccc1", "note": "(stereo not shown) [thiorphan]", "values": [{"measurement": "inhibition at 0.5 µM", "setting": "[1]; read-out: maximum inhibitory potency on LNCaP membrane activity", "result": 62, "unit": "%"}]}
{"compound": "C[C@H](CS)C(=O)N1CCC[C@H]1C(=O)O", "note": "[captopril]", "values": [{"measurement": "effect on substance P hydrolysis by cell surface ectopeptidases", "setting": "[1]", "result": "did not inhibit"}]}
{"compound": "QRFSR [QRFSR]", "values": [{"measurement": "effect on breakdown of SP by recombinant hDPPIV", "setting": "[7]", "result": "no effect; also recorded: not prevented"}]}
{"compound": "QHNP (listed as Rattus rattus)", "values": [{"measurement": "inhibitory potency towards ectoendopeptidase from rat tissues", "setting": "[2]", "result": "≧50 μM"}]}
